Reference: ChEMBL document CHEMBL3885881, “DrugMatrix”

Species on record: Rattus norvegicus
Test: DrugMatrix - Regimen: Daily Repeat
Type: toxicity, organism-based, Sprague-Dawley
Parameters: regimen Daily Repeat, gender Male, age 6-8 weeks
Settings: in vivo, po, route oral GAVAGE, vehicle .5 % CMC; for ABSOLUTE BASOPHIL / ABSOLUTE EOSINOPHIL / ABSOLUTE LYMPHOCYTE / ABSOLUTE MONOCYTE / ABSOLUTE SEGMENTED NEUTROPHIL / BASOPHIL / EOSINOPHIL / ERYTHROCYTE COUNT / HEMATOCRIT / HEMOGLOBIN / LEUKOCYTE COUNT / LYMPHOCYTE / MEAN CORPUSCULAR HEMOGLOBIN / MEAN CORPUSCULAR HEMOGLOBIN CONCENTRATION / MEAN CORPUSCULAR VOLUME / MONOCYTE / NEUTROPHIL / NUCLEATED RED BLOOD CELLS / PLATELET COUNT: tissue Blood; for ALANINE AMINOTRANSFERASE / ALBUMIN / ALKALINE PHOSPHATASE / ASPARTATE AMINOTRANSFERASE / BLOOD UREA NITROGEN / CARBON DIOXIDE / CHLORIDE / CHOLESTEROL / CREATINE PHOSPHOKINASE / CREATININE / GLUCOSE / LACTATE DEHYDROGENASE / LIPASE / PHOSPHORUS / POTASSIUM / SODIUM / TOTAL BILIRUBIN / TOTAL PROTEIN / URIC ACID: tissue Plasma
[1] = 0 mg/kg, 72 h, dose level Control, time 3 day
[2] = 0 mg/kg, 120 h, dose level Control, time 5 day
[3] = 200 mg/kg, 72 h, dose level Low, time 3 day

CCn1cc(C(=O)O)c(=O)c2cc(F)c(N3CCNCC3)cc21 [NORFLOXACIN]
ABSOLUTE BASOPHIL [1]: 0 CELLS/uL
ABSOLUTE EOSINOPHIL [1]: 0 CELLS/uL
ABSOLUTE LYMPHOCYTE [1]: 12269.67 CELLS/uL
ABSOLUTE MONOCYTE [1]: 160.33 CELLS/uL
ABSOLUTE SEGMENTED NEUTROPHIL [1]: 970 CELLS/uL
BASOPHIL [1]: 0%
EOSINOPHIL [1]: 0%
ERYTHROCYTE COUNT [1]: 5.76 x10E6/uL
HEMATOCRIT [1]: 36.57%
HEMOGLOBIN [1]: 14.22 G/DL
LEUKOCYTE COUNT [1]: 13.4 x10E3/uL
LYMPHOCYTE [1]: 91.67%
MEAN CORPUSCULAR HEMOGLOBIN [1]: 24.67 pg
MEAN CORPUSCULAR HEMOGLOBIN CONCENTRATION [1]: 38.85 G/DL
MEAN CORPUSCULAR VOLUME [1]: 63.52 fL
MONOCYTE [1]: 1.17%
NEUTROPHIL [1]: 7.17%
NUCLEATED RED BLOOD CELLS [1]: 0.33 /100WBC
PLATELET COUNT [1]: 1250.83 x10E3/uL
ALANINE AMINOTRANSFERASE [1]: 49.17 u/L
ALBUMIN [1]: 4.33 G/DL
ALKALINE PHOSPHATASE [1]: 378.5 u/L
ASPARTATE AMINOTRANSFERASE [1]: 82.17 u/L
BLOOD UREA NITROGEN [1]: 15 mg/dL
CARBON DIOXIDE [1]: 34.33 mmol/L
CHLORIDE [1]: 99.17 MEQ/L
CHOLESTEROL [1]: 71.17 mg/dL
CREATINE PHOSPHOKINASE [1]: 258.67 u/L
CREATININE [1]: 0.18 mg/dL
GLUCOSE [1]: 142.67 mg/dL
LACTATE DEHYDROGENASE [1]: 154.33 u/L
LIPASE [1]: 9 u/L
PHOSPHORUS [1]: 11.67 mg/dL
POTASSIUM [1]: 7.13 MEQ/L
SODIUM [1]: 142.22 MEQ/L
TOTAL BILIRUBIN [1]: 0.18 mg/dL
TOTAL PROTEIN [1]: 5.77 G/DL
URIC ACID [1]: 1.55 mg/dL
ABSOLUTE BASOPHIL [2]: 0 CELLS/uL
ABSOLUTE EOSINOPHIL [2]: 23.33 CELLS/uL
ABSOLUTE LYMPHOCYTE [2]: 14943.67 CELLS/uL
ABSOLUTE MONOCYTE [2]: 32 CELLS/uL
ABSOLUTE SEGMENTED NEUTROPHIL [2]: 1084.33 CELLS/uL
BASOPHIL [2]: 0%
EOSINOPHIL [2]: 0.17%
ERYTHROCYTE COUNT [2]: 5.71 x10E6/uL
HEMATOCRIT [2]: 35.28%
HEMOGLOBIN [2]: 14.27 G/DL
LEUKOCYTE COUNT [2]: 16.08 x10E3/uL
LYMPHOCYTE [2]: 93%
MEAN CORPUSCULAR HEMOGLOBIN [2]: 25.02 pg
MEAN CORPUSCULAR HEMOGLOBIN CONCENTRATION [2]: 40.43 G/DL
MEAN CORPUSCULAR VOLUME [2]: 61.82 fL
MONOCYTE [2]: 0.17%
NEUTROPHIL [2]: 6.67%
NUCLEATED RED BLOOD CELLS [2]: 0.33 /100WBC
PLATELET COUNT [2]: 1274 x10E3/uL
ALANINE AMINOTRANSFERASE [2]: 54.17 u/L
ALBUMIN [2]: 4.22 G/DL
ALKALINE PHOSPHATASE [2]: 373.17 u/L
ASPARTATE AMINOTRANSFERASE [2]: 81.83 u/L
BLOOD UREA NITROGEN [2]: 16.67 mg/dL
CARBON DIOXIDE [2]: 30.33 mmol/L
CHLORIDE [2]: 99 MEQ/L
CHOLESTEROL [2]: 71 mg/dL
CREATINE PHOSPHOKINASE [2]: 273.5 u/L
CREATININE [2]: 0.22 mg/dL
GLUCOSE [2]: 141.83 mg/dL
LACTATE DEHYDROGENASE [2]: 153.67 u/L
LIPASE [2]: 10.33 u/L
PHOSPHORUS [2]: 11.38 mg/dL
POTASSIUM [2]: 7.08 MEQ/L
SODIUM [2]: 142.75 MEQ/L
TOTAL BILIRUBIN [2]: 0.18 mg/dL
TOTAL PROTEIN [2]: 6.1 G/DL
URIC ACID [2]: 1.67 mg/dL
ABSOLUTE BASOPHIL [3]: 0 CELLS/uL
ABSOLUTE EOSINOPHIL [3]: 0 CELLS/uL
ABSOLUTE LYMPHOCYTE [3]: 11949 CELLS/uL
ABSOLUTE MONOCYTE [3]: 111 CELLS/uL
ABSOLUTE SEGMENTED NEUTROPHIL [3]: 1006.67 CELLS/uL
BASOPHIL [3]: 0%
EOSINOPHIL [3]: 0%
ERYTHROCYTE COUNT [3]: 5.6 x10E6/uL
HEMATOCRIT [3]: 36.17%
HEMOGLOBIN [3]: 14.13 G/DL
LEUKOCYTE COUNT [3]: 13.07 x10E3/uL
LYMPHOCYTE [3]: 91.67%
MEAN CORPUSCULAR HEMOGLOBIN [3]: 25.27 pg
MEAN CORPUSCULAR HEMOGLOBIN CONCENTRATION [3]: 39.07 G/DL
MEAN CORPUSCULAR VOLUME [3]: 64.63 fL
MONOCYTE [3]: 1%
NEUTROPHIL [3]: 7.33%
NUCLEATED RED BLOOD CELLS [3]: 0 /100WBC
PLATELET COUNT [3]: 1470.67 x10E3/uL
ALANINE AMINOTRANSFERASE [3]: 63.33 u/L
ALBUMIN [3]: 4.33 G/DL
ALKALINE PHOSPHATASE [3]: 468 u/L
ASPARTATE AMINOTRANSFERASE [3]: 89 u/L
BLOOD UREA NITROGEN [3]: 13.67 mg/dL
CARBON DIOXIDE [3]: 28 mmol/L
CHLORIDE [3]: 102 MEQ/L
CHOLESTEROL [3]: 54.33 mg/dL
CREATINE PHOSPHOKINASE [3]: 294 u/L
CREATININE [3]: 0.26 mg/dL
GLUCOSE [3]: 137.33 mg/dL
LACTATE DEHYDROGENASE [3]: 260.67 u/L
LIPASE [3]: 10 u/L
PHOSPHORUS [3]: 13.5 mg/dL
POTASSIUM [3]: 6.81 MEQ/L
SODIUM [3]: 146.4 MEQ/L
TOTAL BILIRUBIN [3]: 0.23 mg/dL
TOTAL PROTEIN [3]: 6 G/DL
URIC ACID [3]: 2.13 mg/dL
